# Data as given in patent publication US20200283726A1, “PROCESS FOR CONTINUOUS CELL CULTURE OF GPSCS” (Georgetown University, priority 2017, published 2020).
# Tested on: gPSCs
# Experiment: Upstream/downstream ROCK pathway inhibitors used in the culture conditions in place of a ROCK inhibitor
# Type: cell-based
# Source text: As used herein, inhibiting ROCK can mean to reduce the activity, function or expression of at least one of ROCK1 or ROCK2. […] In general, ROCK phosphorylates LIM kinase and myosin light chain (MLC) phosphatase after being activated through binding of GTP-bound Rho. One embodiment of the present invention thus involves blocking the upstream pathway of ROCK1 and/or ROCK2, for example GTP-bound Rho, such that ROCK1 and/or ROCK2 is not activated or its activity is reduced over untreated cells. Other upstream effectors include but are not limited to, integrins, growth factor receptors, including but not limited to, TGF-beta and EGFR, cadherins, G protein coupled receptors and the like. Another embodiment of the present invention thus involves blocking the activity, function or expression of downstream effector molecules of activated ROCK1 and/or ROCK2 such that ROCK1 and/or ROCK2 cannot propagate any signal or can only propagate a reduced signal over untreated cells. Downstream effectors include but are not limited to, Myosin phosphatase-targeting protein (MYPT), vimentin, LIMK, Myosin light chain kinase, NHE1, cofilin, Myosin II and the like. […] Upstream or downstream inhibition of ROCK, in place of direct ROCK inhibition and in conjunction with the other culture conditions described and required herein, may or may not generate conditionally immortalized gPSCs.
row,Compound,Effect on cells in culture
1,Cc1ccc2c(c1)C(=O)C1(O)CCN(c3ccccc3)C1=N2 (centres unmarked) [blebbistatin],allow the cells to bypass differentiation and allow proliferation in vitro
2,C3 transferase,allow the cells to bypass differentiation and allow proliferation in vitro
